Tests used:
[1] = Cell viability assay (EZ-Cytox), cytotoxicity; format: cell-based; conditions: human, HepAD38 cells; for viability at 65 h, 100 µM: read-out: Cytotoxicity % Livability (@100 μM)
Experimental: HepAD38 cells were cultured for 2 days in Dulbecco's Modified Eagle's medium (Welgene, LM001-05) supplemented with 10% FBS without tetracycline. […] After 65 hours of treatment, viability was measured using EZ-Cytox cell viability assay kit (Daeil Lab Service) according to the manufacturer's instructions. The absorbance was measured at 450 nm using a spectrophotometer (Spark, Tecan).

[2] = tested on: intracellular HBV DNA; assay: Real-time PCR for intracellular HBV DNA in HepAD38 cells; format: cell-based; conditions: Hepatitis B virus, HePAD38, 65 h, 65 hours treatment

SMILES | CC50 at 65 h [1] | viability at 65 h, 100 µM [1] | IC50 [2]
COc1ncc(N(Cc2n[nH]c(C(F)(F)F)c2CC(C)O)C(=O)Nc2ccc(F)c(C(F)F)c2)cn1 (stereo not drawn) [Example 199, 3-(3-(difluoromethyl)-4-fluorophenyl)-1-((4-(2-hydroxypropyl)-5-(trifluoromethyl)-1H-pyrazol-3-yl)methyl)-1-(2-methoxypyrimidin-5-yl)urea] | > 100 µM | 95.7% | 0.75 µM
COc1ncc(N(Cc2cc(C(F)(F)F)[nH]n2)C(=O)Nc2ccc(F)c(C(F)F)c2)cn1 [Example 189, 3-(3-(difluoromethyl)-4-fluorophenyl)-1-(2-methoxypyrimidin-5-yl)-1-((5-(trifluoromethyl)-1H-pyrazol-3-yl)methyl)urea] | > 100 µM | 58% | 0.0065 µM
Cn1cc(N(Cc2n[nH]c3c2CCCC3)C(=O)Nc2ccc(F)c(Cl)c2)cn1 [Example 24, 3-(3-chloro-4-fluorophenyl)-1-(1-methyl-1H-pyrazol-4-yl)-1-((4,5,6,7-tetrahydro-1H-indazol-3-yl)methyl)urea] | > 100 µM | 53.4% | 0.16 µM
COC12CC(N(Cc3cc(C(F)(F)F)[nH]n3)C(=O)Nc3ccc(F)c(Cl)c3)(C1)C2 [Example 105, 3-(3-chloro-4-fluorophenyl)-1-(3-methoxybicyclo[1.1.1]pentan-1-yl)-1-((5-(trifluoromethyl)-1H-pyrazol-3-yl)methyl)urea] | 55.8 µM | 3.5% | 0.034 µM
N#Cc1cc(N(Cc2n[nH]c3c2CCOC3)C(=O)Nc2ccc(F)c(Cl)c2)ccn1 [Example 128, 3-(3-chloro-4-fluorophenyl)-1-(2-cyanopyridin-4-yl)-1-((1,4,5,7-tetrahydropyrano[3,4-c]pyrazol-3-yl)methyl)urea] | > 100 µM | 65.9% | 0.34 µM
CC(C)(O)c1ccc(N(Cc2n[nH]c3c2CCCO3)C(=O)Nc2ccc(F)c(Cl)c2)cn1 [Example 110, 3-(3-chloro-4-fluorophenyl)-1-(6-(2-hydroxypropan-2-yl)pyridin-3-yl)-1-((1,4,5,6-tetrahydropyrano[2,3-c]pyrazol-3-yl)methyl)urea] | > 100 µM |  | > 1.1 µM
COc1ncc(N(Cc2cc(C(F)(F)F)[nH]n2)C(=O)Nc2ccc(F)c(Cl)c2)cc1C#N [Example 119, 3-(3-chloro-4-fluorophenyl)-1-(5-cyano-6-methoxypyridin-3-yl)-1-((5-(trifluoromethyl)-1H-pyrazol-3-yl)methyl)urea] | < 50 µM | 18.8% | 0.32 µM
COc1ncc(N(Cc2cc(C(F)(F)F)[nH]n2)C(=O)Nc2cccc(C(F)F)c2)cn1 [Example 176, 3-(3-(difluoromethyl)phenyl)-1-(2-methoxypyrimidin-5-yl)-1-((5-(trifluoromethyl)-1H-pyrazol-3-yl)methyl)urea] | > 100 µM | 53.5% | 0.036 µM
CC(C)(O)c1cc(N(Cc2n[nH]c3c2CCCO3)C(=O)Nc2ccc(F)c(Cl)c2)on1 [Example 109, 3-(3-chloro-4-fluorophenyl)-1-(3-(2-hydroxypropan-2-yl)isoxazol-5-yl)-1-((1,4,5,6-tetrahydropyrano[2,3-c]pyrazol-3-yl)methyl)urea] | > 100 µM | 82% | 0.15 µM
COc1ncc(N(Cc2cc(C(F)(F)F)[nH]n2)C(=O)Nc2ccc(F)c(C#N)c2)cn1 [Example 154, 3-(3-cyano-4-fluorophenyl)-1-(2-methoxypyrimidin-5-yl)-1-((5-(trifluoromethyl)-1H-pyrazol-3-yl)methyl)urea] | > 100 µM | 73% | 0.013 µM
COc1ccc(N(Cc2nn(CCOC3CCCCO3)c3c2CCC3)C(=O)Nc2ccc(F)c(Cl)c2)cn1 (stereo not drawn) [Example 66, 3-(3-chloro-4-fluorophenyl)-1-(6-methoxypyridin-3-yl)-1-((1-(2-(tetrahydro-2H-pyran-2-yloxy)ethyl)-1,4,5,6-tetrahydrocyclopenta[c]pyrazol-3-yl)methyl)urea] | 81.9 µM |  | > 0.3 µM
COC12CC(N(Cc3cc(C(F)(F)F)[nH]n3)C(=O)Nc3ccc(F)c(C(F)F)n3)(C1)C2 [Example 214, 3-(6-(difluoromethyl)-5-fluoropyridin-2-yl)-1-(3-methoxybicyclo[1.1.1]pentan-1-yl)-1-((5-(trifluoromethyl)-1H-pyrazol-3-yl)methyl)urea] | > 100 µM | 76.8% | 0.22 µM
N#Cc1cncc(N(Cc2n[nH]c3c2COCC3)C(=O)Nc2ccc(F)c(Cl)c2)c1 [Example 129, 3-(3-chloro-4-fluorophenyl)-1-(5-cyanopyridin-3-yl)-1-((1,4,6,7-tetrahydropyrano[4,3-c]pyrazol-3-yl)methyl)urea] | > 100 µM | 93.1% | 0.06 µM
CC(C)(O)c1cc(N(Cc2n[nH]c3c2CCCO3)C(=O)Nc2ccc(F)c(Cl)c2)ccn1 [Example 113, 3-(3-chloro-4-fluorophenyl)-1-(2-(2-hydroxypropan-2-yl)pyridin-4-yl)-1-((1,4,5,6-tetrahydropyrano[2,3-c]pyrazol-3-yl)methyl)urea] | > 100 µM | 102% | > 1.1 µM
COc1nc(C)c(N(Cc2cc(C(F)(F)F)[nH]n2)C(=O)Nc2ccc(F)c(Cl)c2)c(C)n1 [Example 30, 3-(3-chloro-4-fluorophenyl)-1-(2-methoxy-4,6-dimethylpyrimidin-5-yl)-1-((5-(trifluoromethyl)-1H-pyrazol-3-yl)methyl)urea] | > 100 µM | 52.4% | > 1.1 µM
COc1ncc(N(Cc2cc(C(F)(F)F)[nH]n2)C(=O)Nc2cc(F)ccn2)cn1 [Example 187, 3-(4-fluoropyridin-2-yl)-1-(2-methoxypyrimidin-5-yl)-1-((5-(trifluoromethyl)-1H-pyrazol-3-yl)methyl)urea] | > 100 µM |  | > 1.1 µM
COc1ncc(N(Cc2cc(C(F)(F)F)[nH]n2)C(=O)Nc2ccnc(C#N)c2)cn1 [Example 146, 3-(2-cyanopyridin-4-yl)-1-(2-methoxypyrimidin-5-yl)-1-((5-(trifluoromethyl)-1H-pyrazol-3-yl)methyl)urea] | > 100 µM | 112% | 0.12 µM
COc1ncc(N(Cc2cc(C(F)(F)F)[nH]n2)C(=O)Nc2cc(F)c(F)c(F)c2)cn1 [Example 219, 1-(2-methoxypyrimidin-5-yl)-1-((5-(trifluoromethyl)-1H-pyrazol-3-yl)methyl)-3-(3,4,5-trifluorophenyl)urea] | > 100 µM | 53.7% | 0.012 µM
COc1ccc(N(Cc2n[nH]c3c2COC3)C(=O)Nc2ccc(F)c(Cl)c2)cn1 [Example 69, 3-(3-chloro-4-fluorophenyl)-1-((4,6-dihydro-1H-furo[3,4-c]pyrazol-3-yl)methyl)-1-(6-methoxypyridin-3-yl)urea] | > 100 µM | 94.5% | 0.021 µM
COc1ncc(N(Cc2cc(C#N)[nH]n2)C(=O)Nc2ccc(F)c(C(F)F)n2)cn1 [Example 212, 1-((5-cyano-1H-pyrazol-3-yl)methyl)-3-(6-(difluoromethyl)-5-fluoropyridin-2-yl)-1-(2-methoxypyrimidin-5-yl)urea] | > 100 µM | 99.4% | 0.21 µM
